Experimental data reported in US7112565B2, “Stabilized pharmaceutical composition in lyophilized form” (Astellas Pharma Inc., priority 1999, dated 2006).

Columns and labels:
Type in all cases: physicochemical
[1] = Test Example 4: stability of lyophilized compositions of 200 mg of lactose and Compound (II) in vial
[2] = Test Example 6: dependence of stability on the pH of the solution before lyophilizing; settings: for Residual amount / Water content / pH of reconstituted solution in 5 ml of purified water: 10 mg Compound (II) + 100 mg lactose
Experimental: Dependence of the Stability of Lyophilized Compositions of Compound (II) upon the pH Value of the Solution of the Composition before Lyophilizing
10 mg of Compound (II) and, as a stabilizer, 100 mg of lactose were dissolved completely in 1 ml of citrate-NaOH buffer having different pH value between pH 4.0 to 7.0. The resulting solutions having different pH values were lyophilized and maintained at 70° C. in glass vials. Nine days after, the resulting compositions were tested on their pH and the residual amount of Compound (II).

[3] = Test Example 1: effect of stabilizer on stability of lyophilized compositions of Compound (II)
Experimental: Effect of Stabilizer in Stabilizing Lyophilized Compositions of Compound (II)
(§1) 10 mg of Compound (II) and, as a stabilizer, 100 mg of lactose or 9 mg of sodium chloride were dissolved completely in 1 ml of water. The resulting solutions were lyophilized and maintained at 70° C. in glass vials. Nine days after, the resulting compositions were tested on their appearance, the residual amount of Compound (II), and others. As a control, used was a solution of Compound (II) without any stabilizers.

[4] = Test Example 2: stability with maltose, sucrose or glucose as stabilizer
Experimental: as §1
The similar tests were conducted in the same manner as in Test Example 1 except that 100 mg of maltose, 50 mg of sucrose or 50 mg of glucose was used as a stabilizer.

[5] = Test Example 3: dependence of stability on the amount of lactose added; settings: after 3 months at 40° C. and 75% humidity
[6] = 25 mg Compound (II) + 200 mg lactose, after 3 months at 40° C. and 75% humidity
[7] = solution pH 4.0 before lyophilizing, 0 hours
[8] = solution pH 4.0 before lyophilizing, 9 days at 70° C.
[9] = solution pH 4.5 before lyophilizing, 0 hours
[10] = solution pH 4.5 before lyophilizing, 9 days at 70° C.
[11] = solution pH 5.0 before lyophilizing, 0 hours
[12] = solution pH 5.0 before lyophilizing, 9 days at 70° C.
[13] = solution pH 5.5 before lyophilizing, 0 hours
[14] = solution pH 5.5 before lyophilizing, 9 days at 70° C.
[15] = solution pH 6.0 before lyophilizing, 0 hours
[16] = solution pH 6.0 before lyophilizing, 9 days at 70° C.
[17] = solution pH 6.5 before lyophilizing, 0 hours
[18] = solution pH 6.5 before lyophilizing, 9 days at 70° C.
[19] = solution pH 7.0 before lyophilizing, 0 hours
[20] = solution pH 7.0 before lyophilizing, 9 days at 70° C.
[21] = 10 mg Compound (II) + lactose (100 mg), 0 hours
[22] = 10 mg Compound (II) + lactose (100 mg), after 9 days at 70° C.
[23] = 10 mg Compound (II) + sodium chloride (9 mg), 0 hours
[24] = 10 mg Compound (II) + sodium chloride (9 mg), after 9 days at 70° C.
[25] = 10 mg Compound (II), control: nil stabilizer, 0 hours
[26] = 10 mg Compound (II), control: nil stabilizer, after 9 days at 70° C.
[27] = 10 mg Compound (II) + glucose (50 mg), 0 hours
[28] = 10 mg Compound (II) + glucose (50 mg), after 9 days at 70° C.
[29] = 10 mg Compound (II) + maltose (100 mg), 0 hours
[30] = 10 mg Compound (II) + maltose (100 mg), after 9 days at 70° C.
[31] = 10 mg Compound (II) + sucrose (50 mg), 0 hours
[32] = 10 mg Compound (II) + sucrose (50 mg), after 9 days at 70° C.

CCCCCOc1ccc(-c2cc(-c3ccc(C(=O)NC4CC(O)C(O)NC(=O)C5C(O)C(C)CN5C(=O)C(C(O)CC(N)=O)NC(=O)C(C(O)C(O)c5ccc(O)c(OS(=O)(=O)[O-])c5)NC(=O)C5CC(O)CN5C(=O)C(C(C)O)NC4=O)cc3)no2)cc1.[Na+] (stereo not shown) [Compound (II)]
Residual amount [1, 6]: 101.2% | pH of reconstituted solution in 5 ml of purified water [1, 6]: 6.14 | Total impurities ([1]; 50 mg Compound (II) + 200 mg lactose, after 21 days at 60° C.): 3.68% | Residual amount ([1]; 75 mg Compound (II) + 200 mg lactose, after 21 days at 60° C.): 97.7% | pH of reconstituted solution in 5 ml of purified water ([1]; 100 mg Compound (II) + 200 mg lactose, after 3 months at 40° C. and 75% humidity): 5.85 | Residual amount ([2]; all solution pH values 4.0 to 7.0, 0 hours): 100% | Water content [2, 7]: 0.2% | pH of reconstituted solution in 5 ml of purified water [2, 7]: 3.9 | Residual amount [2, 8]: 94.4% | pH of reconstituted solution in 5 ml of purified water [2, 8]: 4.0 | Water content [2, 9]: 0.2% | pH of reconstituted solution in 5 ml of purified water [2, 9]: 4.4 | Residual amount [2, 10]: 95.9% | pH of reconstituted solution in 5 ml of purified water [2, 10]: 4.5 | Water content [2, 11]: 0.3% | pH of reconstituted solution in 5 ml of purified water [2, 11]: 4.8 | Residual amount [2, 12]: 97.4% | pH of reconstituted solution in 5 ml of purified water [2, 12]: 4.9 | Water content [2, 13]: 0.3% | pH of reconstituted solution in 5 ml of purified water [2, 13]: 5.4 | Residual amount [2, 14]: 98.5% | pH of reconstituted solution in 5 ml of purified water [2, 14]: 5.4 | Water content [2, 15]: 0.3% | pH of reconstituted solution in 5 ml of purified water [2, 15]: 5.8 | Residual amount [2, 16]: 97.7% | pH of reconstituted solution in 5 ml of purified water [2, 16]: 5.8 | Water content [2, 17]: 0.4% | pH of reconstituted solution in 5 ml of purified water [2, 17]: 6.4 | Residual amount [2, 18]: 96.9% | pH of reconstituted solution in 5 ml of purified water [2, 18]: 6.4 | Water content [2, 19]: 0.3% | pH of reconstituted solution in 5 ml of purified water [2, 19]: 6.8 | Residual amount [2, 20]: 95.8% | pH of reconstituted solution in 5 ml of purified water [2, 20]: 6.8 | Stability of composition (conclusion from Table 5) ([2]; after lyophilizing the solution at pH 4.0 to 7.0 at least, preferably pH 4.5 to 7.0): stable | Appearance [3, 21]: White mass | Residual amount [3, 21]: 100.0% | Water content [3, 21]: 1.0% | pH of reconstituted solution in 1 ml of water [3, 21]: 6.4 | Appearance [3, 22]: White mass | Residual amount [3, 22]: 99.5% | pH of reconstituted solution in 1 ml of water [3, 22]: 6.1 | Appearance [3, 23]: White mass | Residual amount [3, 23]: 100.0% | Water content [3, 23]: 0.7% | pH of reconstituted solution in 1 ml of water [3, 23]: 6.7 | Appearance [3, 24]: White mass | Residual amount [3, 24]: 75.9% | pH of reconstituted solution in 1 ml of water [3, 24]: 6.3 | Appearance [3, 25]: White mass | Residual amount [3, 25]: 100.0% | Water content [3, 25]: 1.3% | pH of reconstituted solution in 1 ml of water [3, 25]: 7.1 | Appearance [3, 26]: Slightly yellow mass | Residual amount [3, 26]: 8.0% | pH of reconstituted solution in 1 ml of water [3, 26]: 2.7 | Stability of lyophilized composition (conclusion from Tables 1 and 2) ([3]; with lactose, sodium chloride, maltose or sucrose, compared with no stabilizer or other stabilizers): significantly stable | Appearance [4, 27]: White melt | Residual amount [4, 27]: 100% | Water content [4, 27]: 4.3% | pH of reconstituted solution in 1 ml of water [4, 27]: 6.9 | Appearance [4, 28]: Brown melt | Residual amount [4, 28]: 1.1% | pH of reconstituted solution in 1 ml of water [4, 28]: 3.6 | Appearance [4, 29]: White mass | Residual amount [4, 29]: 100.0% | Water content [4, 29]: 0.9% | pH of reconstituted solution in 1 ml of water [4, 29]: 7.3 | Appearance [4, 30]: White mass | Residual amount [4, 30]: 98.6% | pH of reconstituted solution in 1 ml of water [4, 30]: 6.7 | Appearance [4, 31]: White mass | Residual amount [4, 31]: 100.0% | Water content [4, 31]: 1.1% | pH of reconstituted solution in 1 ml of water [4, 31]: 6.9 | Appearance [4, 32]: White melt | Residual amount [4, 32]: 82.4% | pH of reconstituted solution in 1 ml of water [4, 32]: 7.0 | Appearance [4, 25]: White mass | Residual amount [4, 25]: 100.0% | Water content [4, 25]: 3.3% | pH of reconstituted solution in 1 ml of water [4, 25]: 6.8 | Appearance [4, 26]: White mass | Residual amount [4, 26]: <75.0% | pH of reconstituted solution in 1 ml of water [4, 26]: 5.4 | Appearance ([5]; 10 mg Compound (II) + 20 mg lactose): White mass | pH of reconstituted solution in 1 ml of water ([5]; 10 mg Compound (II) + 50 mg lactose): 6.26 | Clarity of reconstituted solution in 1 ml of water ([5]; 10 mg Compound (II) + 100 mg lactose): Clear
